ChEMBL document CHEMBL1201862, “PubChem BioAssay data set” (2004)
Active and inactive are the calls of the source. For most assays here, no stated cut-off is given here; in the data, actives have a measured EC50 and inactives only a lower limit.

Columns and labels:
[1] = system: H4; assay: Luminescence Cell-Based Dose Response HTS to Identify Activators of 5'UTR Stem-Loop Driven Prion Protein mRNA Translation in H4 Neuroglioblastoma Cells. [Related pubchem assays: 1829 (Project Summary), 1814 (Primary HTS)]; format: functional; settings: Homo sapiens
[2] = Luminescence Cell-Based Dose Response HTS to Identify Activators of Luciferase Translation or Activity in H4 […] Cells. [Related pubchem assays: 1829 (Project Summary), 1814 (Primary HTS)]; format: functional
[3] = Luminescence Cell-Based Dose Confirmation HTS to Identify Activators of 5'UTR Stem-Loop Driven Alpha-Synuclein mRNA Translation in H4 Neuroglioblastoma Cells. [Related pubchem assays: 1829 (Project Summary), 1814 (Primary HTS)]; format: functional
[4] = target: T1, Rac GTPase-activating protein 1 (Homo sapiens, UniProt Q9H0H5); assay: blockers of MgcRacGAP-driven Rac1 GTP hydrolysis – biochemical, ADP Hunter fluorescence, primary and confirmatory, confirmation (AID 624330); format: functional
T1 sequence (Q9H0H5 whole entry): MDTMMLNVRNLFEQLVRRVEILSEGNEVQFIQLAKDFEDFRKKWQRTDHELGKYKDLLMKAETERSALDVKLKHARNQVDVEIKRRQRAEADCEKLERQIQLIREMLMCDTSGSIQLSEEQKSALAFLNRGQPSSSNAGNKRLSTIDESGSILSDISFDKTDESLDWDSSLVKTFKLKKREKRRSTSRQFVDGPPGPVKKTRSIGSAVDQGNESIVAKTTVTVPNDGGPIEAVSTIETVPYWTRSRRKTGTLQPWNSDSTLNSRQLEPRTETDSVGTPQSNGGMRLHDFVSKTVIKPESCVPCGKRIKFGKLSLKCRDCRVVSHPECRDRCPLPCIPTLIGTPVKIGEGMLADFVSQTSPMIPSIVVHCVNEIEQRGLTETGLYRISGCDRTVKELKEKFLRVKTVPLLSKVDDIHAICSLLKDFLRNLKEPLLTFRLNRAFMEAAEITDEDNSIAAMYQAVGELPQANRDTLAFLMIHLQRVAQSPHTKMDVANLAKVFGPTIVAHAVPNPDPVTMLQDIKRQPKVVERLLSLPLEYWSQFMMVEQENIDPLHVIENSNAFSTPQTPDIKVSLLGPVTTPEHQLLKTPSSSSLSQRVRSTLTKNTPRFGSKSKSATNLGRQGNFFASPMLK

[5] = system: INS1; assay: INS-1E survival protection against cytokine death – cell-based, luminescence, retest, dose response (AID 449756); format: functional; settings: Rattus norvegicus;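 further: cell death triggered by IL-1 beta plus TNF-alpha plus IFN-gamma mixture; protective hits raise ATP signal compared with cytokine alone wells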
[6] = system: Streptococcus; assay: GAS UMAA2166 growth inhibition – luminescence, BacTiterGlo, counter-screen for streptokinase expression inhibitor project, dose response (AID 1915); format: functional, organism-based;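 further: potency for reduction of bacterial viability or growth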
[7] = system: Streptococcus sp. 'group A'; assay: Streptococcus pyogenes SK(-)GAS viability under kanamycin – luminescence, BacTiterGlo, confirmation, counter-screen for streptokinase expression inhibitor project, dose response (AID 1900); format: functional, organism-based
[8] = target: T2, Replicative DNA helicase DnaB (Mycobacterium tuberculosis, UniProt P9WMR3); assay: DnaB intein splicing inhibitors, dose response, biochemical, cell-free fluorescence (AID 449749); format: functional
T2 sequence (P9WMR3 whole entry): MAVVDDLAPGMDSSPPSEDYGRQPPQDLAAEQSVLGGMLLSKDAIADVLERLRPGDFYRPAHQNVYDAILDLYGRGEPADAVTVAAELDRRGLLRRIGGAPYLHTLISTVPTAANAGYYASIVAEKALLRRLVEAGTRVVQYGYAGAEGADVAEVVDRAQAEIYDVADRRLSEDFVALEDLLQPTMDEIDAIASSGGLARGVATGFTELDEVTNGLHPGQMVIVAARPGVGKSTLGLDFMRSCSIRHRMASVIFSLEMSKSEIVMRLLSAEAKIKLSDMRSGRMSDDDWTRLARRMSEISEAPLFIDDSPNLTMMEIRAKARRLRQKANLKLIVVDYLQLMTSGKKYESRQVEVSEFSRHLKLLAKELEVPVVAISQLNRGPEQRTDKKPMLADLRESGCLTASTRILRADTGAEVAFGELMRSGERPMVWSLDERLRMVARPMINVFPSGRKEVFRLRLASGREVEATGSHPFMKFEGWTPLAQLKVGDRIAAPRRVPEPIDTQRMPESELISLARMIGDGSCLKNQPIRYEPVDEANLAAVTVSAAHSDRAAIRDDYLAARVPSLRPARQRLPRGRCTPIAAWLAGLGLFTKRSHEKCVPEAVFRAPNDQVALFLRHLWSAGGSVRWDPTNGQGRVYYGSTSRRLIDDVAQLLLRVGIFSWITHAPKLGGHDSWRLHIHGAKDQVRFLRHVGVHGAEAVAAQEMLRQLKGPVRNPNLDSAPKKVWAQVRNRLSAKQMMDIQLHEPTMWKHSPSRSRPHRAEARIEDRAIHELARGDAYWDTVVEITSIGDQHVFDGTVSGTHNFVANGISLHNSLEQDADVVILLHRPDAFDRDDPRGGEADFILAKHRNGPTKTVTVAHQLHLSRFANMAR

[9] = target: T3, Corticotropin-releasing factor receptor 2/Corticotropin-releasing factor-binding protein (Homo sapiens, UniProt P24387+Q13324); assay: activators of CRF receptor 2 with binding protein – uHTS hits, confirmation (AID 602473); format: functional; settings: read-out: EC50_Mean
T3 sequence (Q13324 whole entry): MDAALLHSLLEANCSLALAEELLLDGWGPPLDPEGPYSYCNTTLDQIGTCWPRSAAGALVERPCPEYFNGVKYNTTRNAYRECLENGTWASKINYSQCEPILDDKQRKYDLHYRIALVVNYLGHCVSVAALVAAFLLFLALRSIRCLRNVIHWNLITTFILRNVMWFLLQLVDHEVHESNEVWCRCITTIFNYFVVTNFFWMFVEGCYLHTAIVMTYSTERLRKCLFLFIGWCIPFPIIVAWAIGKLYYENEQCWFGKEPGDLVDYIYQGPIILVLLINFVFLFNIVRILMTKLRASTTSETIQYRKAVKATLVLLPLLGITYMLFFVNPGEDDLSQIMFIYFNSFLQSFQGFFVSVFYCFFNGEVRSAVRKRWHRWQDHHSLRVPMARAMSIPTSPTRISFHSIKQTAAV
T3 sequence (P24387 whole entry): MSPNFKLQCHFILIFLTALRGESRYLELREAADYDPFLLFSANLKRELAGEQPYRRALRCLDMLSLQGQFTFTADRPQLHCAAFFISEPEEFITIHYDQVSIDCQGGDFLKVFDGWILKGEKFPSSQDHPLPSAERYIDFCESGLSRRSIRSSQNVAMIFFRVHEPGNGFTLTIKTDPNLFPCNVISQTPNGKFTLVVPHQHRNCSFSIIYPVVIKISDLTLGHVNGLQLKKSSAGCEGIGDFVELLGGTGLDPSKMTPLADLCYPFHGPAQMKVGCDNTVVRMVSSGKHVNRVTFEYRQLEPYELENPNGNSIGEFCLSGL

[10] = target: T3, Corticotropin-releasing factor receptor 2/Corticotropin-releasing factor-binding protein; assay: Dose Response confirmation of uHTS hits for small molecule antagonists of the CRF-binding protein and CRF-R2 receptor complex.; format: functional; settings: read-out: IC50_Mean
[11] = target: T4, Protein RecA (Mycobacterium tuberculosis, UniProt P9WHJ3); assay: Fluorescence Cell-Free Homogeneous Dose Retest to Identify Inhibitors of RecA-Intein Splicing Activity. [Related pubchem assays (depositor defined):AID2097, AID2223, AID489010, AID492950]; format: functional
T4 sequence (P9WHJ3 whole entry): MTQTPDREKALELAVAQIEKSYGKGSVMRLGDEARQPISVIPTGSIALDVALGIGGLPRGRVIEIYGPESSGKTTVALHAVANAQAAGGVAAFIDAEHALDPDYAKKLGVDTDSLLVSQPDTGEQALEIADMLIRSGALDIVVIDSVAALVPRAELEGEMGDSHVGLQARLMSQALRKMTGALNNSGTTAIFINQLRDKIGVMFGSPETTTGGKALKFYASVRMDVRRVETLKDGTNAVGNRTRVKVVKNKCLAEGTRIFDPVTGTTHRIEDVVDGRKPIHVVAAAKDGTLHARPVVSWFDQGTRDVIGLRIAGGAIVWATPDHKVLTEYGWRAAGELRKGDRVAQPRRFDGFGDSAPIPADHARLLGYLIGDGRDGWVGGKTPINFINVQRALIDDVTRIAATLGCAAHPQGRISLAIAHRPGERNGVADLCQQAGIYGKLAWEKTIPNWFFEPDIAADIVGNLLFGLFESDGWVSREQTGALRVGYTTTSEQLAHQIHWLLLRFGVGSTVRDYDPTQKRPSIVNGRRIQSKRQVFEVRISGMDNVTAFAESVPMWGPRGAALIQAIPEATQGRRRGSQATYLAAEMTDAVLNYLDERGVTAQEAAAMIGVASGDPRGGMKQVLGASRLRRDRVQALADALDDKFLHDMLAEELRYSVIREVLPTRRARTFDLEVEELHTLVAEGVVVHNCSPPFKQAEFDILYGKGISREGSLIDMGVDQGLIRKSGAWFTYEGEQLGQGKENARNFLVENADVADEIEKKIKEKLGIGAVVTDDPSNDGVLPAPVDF

[12] = Trypanosoma cruzi growth suppression in host cells – NIH3T3 host cells, beta-gal luminescence, confirmation (AID 2044); format: functional, cell-based;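 further: intracellular parasites grown in NIH/3T3 mouse fibroblasts as host cells; luminescent beta-galactosidase reporter signal from transgenic T. cruzi replicating inside host cells; inhibitors lower the luminescence signal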
[13] = NIH3T3 cell viability loss – ATP luminescence, mouse fibroblasts, counter-screen, dose response (AID 2010); format: functional, cell-based;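 further: cells exposed to compound for about 90 hours before reading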

SMILES | EC50 [1] | EC50 [2] | EC50 [3] | IC50 [4] | further results
O=C1/C(=C/c2cccnc2)Oc2cc(OS(=O)(=O)c3ccccc3)ccc21 | > 120 µM (not active) | 8.55 µM (active) | 18.3 µM (active) | – | –
Cn1c(CN2CCOCC2)nc2cc(NC(=O)c3ccc(Cl)cc3)ccc21 | > 120 µM (not active) | 14.3 µM (active) | 26.7 µM (active) | – | –
COc1ccc2oc(=O)c(C(=O)N3CCN(c4ccccc4C)CC3)cc2c1 | 19 µM (active) | 17 µM (active) | 57 µM (active) | – | –
COC(=O)C1=C(C)N(CC2CCCO2)C(=O)/C1=C\c1ccc(O)cc1 (stereo not drawn) | – | – | – | 25 µM (active) | –
CC1CC(C)(C)N(C(=O)CN2CCN(C)CC2)c2ccccc21 (stereo not drawn) | – | – | – | 85.3 µM (active) | –
Cc1ccc(O)c(NC(=S)NC(=O)c2ccc(-c3ccc(Cl)cc3)o2)c1 | – | – | – | – | AC50 [5]: 16.7 µM (active); EC50 [6]: 5.74 µM (active); EC50 [7]: 1.16 µM (active)
Cc1ccc2c(c1)C(c1ccncc1)=NNC(c1ccccc1)=N2 | 21.2 µM (active) | > 120 µM (not active) | 0.364 µM (active) | – | –
COc1cccc(NC(=O)C(=O)NCC2CCCN2S(=O)(=O)c2ccccc2)c1 (stereo not drawn) | 58.8 µM (active) | 2.67 µM (active) | 4.26 µM (active) | – | –
COc1cc(-c2nc3ccc(C)cn3c2NCc2ccccc2)ccc1SC1CCCCC1 | – | – | – | – | AC50 [5]: 4.87 µM (active)
Cc1n[nH]c(SCC(=O)N2CCCCC2)c1[N+](=O)[O-] | 17.3 µM (active) | 8.02 µM (active) | 14.7 µM (active) | – | –
Nc1ccc(N2CCN(c3ccc(Cl)c(Cl)c3)CC2)cc1 | – | – | – | 18.1 µM (active) | –
CCN1C(=O)/C(=C\NC2CCCC(C)C2C)SC1=S (stereo not drawn) | > 120 µM (not active) | 15.8 µM (active) | 0.564 µM (active) | – | –
O=c1oc2ccccc2cc1NCc1ccccc1O | 46.2 µM (active) | 5.63 µM (active) | 0.325 µM (active) | – | –
O=C(Cc1ccc([N+](=O)[O-])cc1)Nc1cccnc1 | – | – | – | – | AC50 [5]: 21.1 µM (active)
COc1cc(/C=C(\C#N)C(=O)Nc2ccc3c(c2)OCCO3)ccc1O | – | – | – | 34 µM (active) | AC50 [8]: 75.9 µM (active); EC50 [9]: > 53 µM (inactive); IC50 [10]: > 47.1 µM (inactive); EC50 [11]: 13.9 µM (active)
CC(C(=O)Nc1ccc2c(c1)OCO2)N1CCN(C)CC1 (stereo not drawn) | – | – | – | 65.3 µM (active) | –
Cc1ccc(S(=O)(=O)N2CCN(C(=O)CN3CCN(c4ccc(O)cc4)CC3)CC2)cc1 | – | – | – | 32.4 µM (active) | –
COc1cc(/C=C/C(=O)OCC(=O)N(CC(C)C)c2c(N)n(Cc3ccccc3)c(=O)[nH]c2=O)ccc1O | – | – | – | 65.7 µM (active) | EC50 [9]: 2.73 µM (active)
Cc1ccc(CSc2nnc(SCC(=O)N/N=C/c3c(C)nn(-c4ccccc4)c3C)s2)cc1 | 43.9 µM (active) | > 120 µM (not active) | 0.169 µM (active) | – | –
COc1cc(/C=N/NC(=O)c2nc(-c3ccccc3)n(-c3ccccc3)n2)ccc1O | – | – | – | 38.7 µM (active) | –
C/C(=N\N1C(=O)c2ccccc2NC1c1ccccc1)c1ccccc1O (stereo not drawn) | – | – | – | – | AC50 [5]: 2.24 µM (active); EC50 [12]: 2.13 µM (active); EC50 [13]: 7.4 µM (active)
O=C(/N=C1\SCC(=O)N1c1ccccc1Cl)c1ccco1 | – | 8.06 µM (active) | 4.12 µM (active) | – | –
N#CCC(=O)N/N=C/c1cc(-c2ccccc2)n(-c2ccc(Cl)cc2)c1-c1ccccc1 | – | – | – | – | AC50 [5]: 3.21 µM (active); EC50 [12]: 1.51 µM (active); EC50 [13]: > 60 µM (inconclusive)
